Experimental data as given in paper PMC6014988, “Precision therapeutic targeting of human cancer cell motility” (Nature Communications, 2018).

Key:
[1] = system: 1542CPTX; test: Three-day MTT cell growth inhibition assay, 1542CPTX; format: cell-based, human; settings: Homo sapiens, 72 h, 3 days
[2] = as above; format: cell-based, human; settings: human, 1542CPTX cells
[3] = system: 1532NPTX; test: Three-day MTT cell growth inhibition assay, 1532NPTX; format: cell-based, human; settings: Homo sapiens, 72 h, 3 days
[4] = as above; format: cell-based, human; settings: human, 1532NPTX cells
[5] = system: 1542NPTX; test: Three-day MTT cell growth inhibition assay, 1542NPTX; format: cell-based, human; settings: Homo sapiens, 72 h, 3 days
[6] = as above; format: cell-based, human; settings: human, 1542NPTX cells
[7] = system: PC3; test: Three-day MTT cell growth inhibition assay, PC3; format: cell-based, human; settings: Homo sapiens, PC-3, 72 h, 3 days
[8] = Three-day MTT cell growth inhibition assay, PC3; format: cell-based, human; settings: human, PC3 cells
[9] = biological target: MKK4 (Homo sapiens, UniProt P45985); design: method as in PMID 19638505; settings: low nanomolar concentrations; cited from earlier work
Chain of MKK4 (P45985 whole entry): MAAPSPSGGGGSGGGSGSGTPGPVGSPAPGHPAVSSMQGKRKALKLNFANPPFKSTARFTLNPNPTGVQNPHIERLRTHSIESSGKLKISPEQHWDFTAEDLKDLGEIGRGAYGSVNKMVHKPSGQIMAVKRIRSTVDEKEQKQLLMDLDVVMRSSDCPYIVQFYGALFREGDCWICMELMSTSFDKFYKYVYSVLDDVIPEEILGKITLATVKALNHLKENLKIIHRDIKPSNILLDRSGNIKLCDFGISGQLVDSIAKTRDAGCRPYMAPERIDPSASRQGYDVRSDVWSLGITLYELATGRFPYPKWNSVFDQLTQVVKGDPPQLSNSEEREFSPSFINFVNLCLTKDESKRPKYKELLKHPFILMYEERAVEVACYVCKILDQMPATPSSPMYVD

[10] = system: human prostate cells (PC3, PC3-M, 1532NPTX, 1542NPTX, 1532CPTX, 1542CPTX); design: method as in PMID 15833883; settings: human PCa cells, nanomolar concentrations; cited from earlier work
[11] = system: human PCa PC3-M cell orthotopic implants; design: method as in PMID 18339885; settings: murine orthotopic model; cited from earlier work
[12] = Three-day MTT cell growth inhibition assay, PC3M; format: cell-based, human; settings: human; PC3M; 3 days
Text: (§1) Assays were in replicates of N = 3, and were repeated. […]
(§2) Values are the mean±SEM of a single experiment, in
(§3) replicates of N=4, repeated at least once (also N=4).
(§4) Supplementary Figure 1b. Synthetic round #2.

[13] = system: PC3M; test: Three-day MTT cell growth inhibition assay, PC3M; format: cell-based, human; settings: Homo sapiens, PC-3M, 72 h, PC3M
Text: as §1, §2, §3, §4

[14] = system: protein phosphorylation in PC3-M and PC3 cells; test: KinomeView phospho-motif antibody screen; format: cell-based, human; settings: 10 µM, 3 days, ± TGFβ
Procedure: The Kinoview™ and PhosphoScan™ assays were performed by Cell Signaling Technology Inc.
Supplementary Figure 10. Proteomic analysis of the effects of KBU2046 on the kinome. (a-c) Screening for effects on the kinome. PC3-M cells were pre-treated with 10 µM KBU2046, genistein or vehicle control for 3 days, then with ± TGFβ, as indicated. Resultant cell lysate, as well as lysate from tumors from mice treated with 150 mg/kg KBU2046 or control mice (from manuscript Figure 2a), were then probed with the KinomeView® panel of antibodies by Western blot. In instances where KBU2046 was inhibiting protein phosphorylation in cells and in tumors, a repeat experiment of PC3-M cells was conducted (Experiment #2). In addition to including PC3-M cells, as in Experiment #1, Experiment #2 expanded to examine effects on PC3 cells. (a) The identification of an 83 kDa band of interest (red arrows). This constitutes the only change […]
as in tumor tissue. […] (c) All […]
other Western blots of phospho-motif antibodies that were evaluated on initial screen. NI = tumor not informative; this denotes a tumor sample that yielded an abnormal coomassie blue staining pattern. Data from this sample was therefore not considered further.
(also on this page, place not known: cat #C32G12; tPE cat #2981; sRXY, FXs NI NI cat #2351; tXR cat #23C8D12; RXRXX(s/t) NI NI)
(1 picture or pasted object on this page, not shown here)

[15] = system: matrix metalloproteinase 2 (MMP-2); design: method as in PMID 19638505; settings: prospective human trial; cited from earlier work
[16] = Three-day MTT cell growth inhibition assay, 1532CPTX; format: cell-based, human; settings: human, 1532CPTX cells
[17] = system: 1532CPTX; test: as above; format: cell-based, human; settings: Homo sapiens, 72 h, 3 days
[18] = system: PC3-M cells; test: Boyden chamber cell invasion assay, PC3-M cells; format: cell-based, human; settings: PC3-M cells, 10 µM compound, 3 days
Procedure: Boyden chamber cell invasion assays were performed as previously described by us[30], using either denatured collagen (BD Biosciences) or type IV human collagen (BD Biosciences), with all experiments repeated, each in N = 4 replicates. In some experiments, as indicated, cells were transfected with an expression plasmid, using Lipofectamine 2000™ (Invitrogen), or with siRNA, using DharmaFect Duo (Thermo Scientific) and co-transfected with β-Galactosidase (Plasmid pCMV•SPORT-βgal; Life Technology). […]
For cell invasion, PC3-M cells […]
were treated with 10 µM compound for a total of 3 days, and cell invasion assays were run at the end of the 3 day period, in the presence of compound. Values are the mean±SEM of three separate experiments, each run in replicates of N=3. […]
assays were performed with PC3-M cells. Values are the mean±SEM of a single experiment, in replicates of N=4, repeated at least once (also N=4). […]

[19] = system: over 9000 human proteins; test: ProtoArray Human Protein Microarray binding assay; settings: levels >/= 10 fold above background
Procedure: The ProtoArray® assay, using the Human Protein Microarray platform, was performed by Invitrogen. […]
followed by detection with FITC-streptavidin, and visualization by fluorescent microscopy (with equal exposure times). (d) Protein array hybridization. KBU2046-biotin was hybridized to ProtoArray® Human Protein Microarray’s at 0.5 and 10 µM with and without 10 fold excess free KBU2046. We first sought proteins that met the following criteria, and did so at both 0.5 and 10 µM concentrations of KBU2046-biotin (in the absence of free KBU2046): Z-Score greater than 2.5, Z-Factor greater than 0.5, CI P-value less than 0.05, negative control value <2,000 (relative fluorescence units; RFUs), and a signal/negative control signal of >10 and >5 for 10 µM and 0.5 µM conditions, respectively. This yielded 3 proteins, shown in table, for an initial hit rate of 0.03%. We then required free KBU2046 to inhibit binding by >75%. Of the two remaining candidates, we eliminated isovaleryl-CoA dehydrogenase (ICD). Its binding signal doubled on […]
suspected non-specific binding by the biotin-linker moiety. We deemed cysteine and glycine-rich protein 1 (CSRP1) our top priority protein, though its binding characteristics at 10 µM + free KBU2046 were similar to ICD, albeit not as extreme. We thus evaluated whether KBU2046- […]
There were two additional notable findings from protein array studies. […]

For `O=c1c(-c2ccc(O)cc2)coc2cc(O)cc(O)c12` [Genistein, 4′,5,7-trihydroxyisoflavone, reference compound], the IC20 [1] was 24.7 µM, the IC50 [1] was over 50 µM and the viability at 3 days, 50 µM [2] was 77.4%. For the same compound, the IC20 [3] was 23 µM, the IC50 [3] was over 50 µM and the viability at 3 days, 50 µM [4] was 66.9%. It also gave an IC20 [5] of 18.7 µM, an IC50 [5] of over 50 µM and a viability at 3 days, 50 µM [6] of 80.5%. For the same compound, the IC20 [7] was 18 µM, the IC50 [7] was 41.7 µM and the viability at 3 days, 50 µM [8] was 39.3%. For the same compound, the “inhibition of MKK4 kinase activity” value [9] was “inhibited the kinase activity”, the cell invasion [10] was “inhibit human prostate cancer (PCa) cell invasion” and the metastasis [11] was “inhibit”. The viability at 3 days, 50 µM [12] was 46.2%, the IC20 ([13]; concentration inhibiting cell growth by 20% after 3 days) was 17.5 µM and the IC50 ([13]; concentration inhibiting cell growth by 50% after 3 days) was 45.3 µM. For the same compound, the “changes in protein phosphorylation” value [14] was “widespread changes in protein phosphorylation”, the “MMP-2 expression in prostate tissue” value [15] was “downregulates” and the viability at 3 days, 50 µM [16] was 71.7%. The IC20 [17] was 30.8 µM and the IC50 [17] was over 50 µM.

In the case of `O=c1c(-c2ccc(O)cc2)coc2cccc(O)c12` [compound 8], the anti-invasion activity [18] is reported as “does not affect activity”.

For `COc1ccc(-c2coc3cc(OC)cc(O)c3c2=O)cc1` [compound 16], the anti-invasion activity [18] was “retains anti-invasion activity”.

In the case of `CN[C@@H]1C[C@H]2O[C@@](C)([C@@H]1OC)n1c3ccccc3c3c4c(c5c6ccccc6n2c5c31)C(=O)NC4` [staurosporine], the “number of proteins bound” value [19] is reported as 214.
